Biological target: T1, STAT6 (Homo sapiens, UniProt P42226)
T1 construct: stably transfected HaCaT keratinocyte cell line, which expresses NanoLuc luciferase reporter gene under the transcriptional control of the STAT6 responsive promoter; endogenous in cells; host or cells: HaCaT keratinocyte reporter cell line (stably transfected with a NanoLuc reporter)
T1 sequence (P42226 1-847): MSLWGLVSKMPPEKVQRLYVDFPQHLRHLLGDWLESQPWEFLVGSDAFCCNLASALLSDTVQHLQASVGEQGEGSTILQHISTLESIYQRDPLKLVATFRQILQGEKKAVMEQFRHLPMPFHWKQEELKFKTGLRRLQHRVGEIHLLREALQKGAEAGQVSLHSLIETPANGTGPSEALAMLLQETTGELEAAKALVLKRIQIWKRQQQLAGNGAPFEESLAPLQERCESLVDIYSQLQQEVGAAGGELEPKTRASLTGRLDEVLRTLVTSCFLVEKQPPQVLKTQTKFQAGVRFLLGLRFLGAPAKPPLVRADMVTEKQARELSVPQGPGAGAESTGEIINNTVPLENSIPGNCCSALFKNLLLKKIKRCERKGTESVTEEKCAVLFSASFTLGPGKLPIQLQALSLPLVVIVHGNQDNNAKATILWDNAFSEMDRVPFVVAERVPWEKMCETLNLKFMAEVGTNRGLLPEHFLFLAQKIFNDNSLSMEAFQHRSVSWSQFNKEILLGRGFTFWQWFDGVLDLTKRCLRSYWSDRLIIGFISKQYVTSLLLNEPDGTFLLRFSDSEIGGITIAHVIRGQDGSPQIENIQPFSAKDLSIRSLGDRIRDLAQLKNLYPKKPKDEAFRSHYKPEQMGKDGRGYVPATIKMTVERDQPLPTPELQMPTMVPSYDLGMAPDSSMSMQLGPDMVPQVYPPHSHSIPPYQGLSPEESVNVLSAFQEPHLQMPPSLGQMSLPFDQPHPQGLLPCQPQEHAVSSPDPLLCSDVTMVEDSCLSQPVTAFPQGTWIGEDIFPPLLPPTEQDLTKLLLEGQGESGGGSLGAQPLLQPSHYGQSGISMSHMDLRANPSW
Assay: STAT6 Reporter Luciferase Assay (IL-13 stimulated HaCaT keratinocyte NanoLuc reporter cells)
Assay type: cell-based
Conditions: IL-13 stimulated HaCaT STAT6 NanoLuc reporter cells; read-out: Reporter EC50
In short: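 HaCaT IL-13Ra2-promoter NanoLuc reporter; cpd 2 h 37 °C in DMEM/2% HI FBS; IL-13 0.12 nM final, 4 h; Nano-Glo luminescence.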

For `Cc1ncc2n1CCN(C(=O)c1ccc(N3CCc4c(c(C(=O)NCc5ccc(NC(=O)N(C)C)cc5)nn4C(C)C)C3)nc1)C2` [Example 382, N-(4-(3,3-dimethylureido)benzyl)-1-isopropyl-5-(5-(3-methyl-5,6,7,8-tetrahydroimidazo[1,5-a]pyrazine-7-carbonyl)pyridin-2-yl)-4,5,6,7-tetrahydro-1H-pyrazolo[4,3-c]pyridine-3-carboxamide], the EC50 was 137 nM.

`CC(C)n1nc(C(=O)NCc2ccc(NC(=O)N(C)C)cc2)c2c1[C@@H](C)CN(c1ccc(C(=O)N(C)C[C@H]3[C@@H]4CN(C)C[C@@H]43)cc1)C2` [Example 661, (S)-N-(4-(3,3-dimethylureido)benzyl)-1-isopropyl-7-methyl-5-(4-(methyl(((1R,5S,6r)-3-methyl-3-azabicyclo[3.1.0]hexan-6-yl)methyl)carbamoyl)phenyl)-4,5,6,7-tetrahydro-1H-pyrazolo[4,3-c]pyridine-3-carboxamide] gave an EC50 of 5 nM.

Work on `CC(C)n1nc(C(=O)NCc2ccc(NC(=O)N3CCNCC3)cc2)c2c1C(C(F)(F)F)CN(c1ccc(C(=O)N(C)C)cc1)C2` (racemic) [Example 704, rac-(R)-5-(4-(dimethylcarbamoyl)phenyl)-1-isopropyl-N-(4-(piperazine-1-carboxamido)benzyl)-7-(trifluoromethyl)-4,5,6,7-tetrahydro-1H-pyrazolo[4,3-c]pyridine-3-carboxamide] yielded an EC50 of 1 nM.

Molecule `CC(C)n1nc(C(=O)NCc2ccc(NC(=O)N(C)C)cc2)c2c1CCN(c1ccc(C(=O)N3CCn4ccnc4C3)cn1)C2` [Example 372, N-(4-(3,3-dimethylureido)benzyl)-1-isopropyl-5-(5-(5,6,7,8-tetrahydroimidazo[1,2-a]pyrazine-7-carbonyl)pyridin-2-yl)-4,5,6,7-tetrahydro-1H-pyrazolo[4,3-c]pyridine-3-carboxamide] has an EC50 of 59 nM.

Work on `CC(C)n1nc(C(=O)NCc2ccc(NC(=O)N(C)C)cc2)c2c1CCN(c1ccc(C(=O)N3C[C@@H]4OC(=O)N[C@@H]4C3)cn1)C2` (racemic) [Example 290, rac-N-(4-(3,3-dimethylureido)benzyl)-1-isopropyl-5-(5-((3aR,6aS)-2-oxohexahydro-2H-pyrrolo[3,4-d]oxazole-5-carbonyl)pyridin-2-yl)-4,5,6,7-tetrahydro-1H-pyrazolo[4,3-c]pyridine-3-carboxamide] yielded an EC50 of 1410 nM.

`CC(C)n1nc(C(=O)NCc2ccc(NC(=O)N(C)C)cc2)c2c1CCN(c1ccc(C(=O)N3CCC[C@@H]3C(N)=O)cn1)C2` [Example 218, (R)-5-(5-(2-carbamoylpyrrolidine-1-carbonyl)pyridin-2-yl)-N-(4-(3,3-dimethylureido)benzyl)-1-isopropyl-4,5,6,7-tetrahydro-1H-pyrazolo[4,3-c]pyridine-3-carboxamide] was tested, and the EC50 was 2380 nM.

Molecule `CO[C@@H]1CCN(C(=O)c2ccc(N3CCc4c(c(C(=O)NCc5ccc(NC(=O)N(C)C)cc5)nn4C(C)C)C3)nc2)C1` [Example 216, (R)-N-(4-(3,3-dimethylureido)benzyl)-1-isopropyl-5-(5-(3-methoxypyrrolidine-1-carbonyl)pyridin-2-yl)-4,5,6,7-tetrahydro-1H-pyrazolo[4,3-c]pyridine-3-carboxamide] has an EC50 of 546 nM.

Molecule `CC(C)n1nc(C(=O)NCc2ccc(NC(=O)N3CCN4CCC[C@@H]4C3)c(F)c2)c2c1[C@@H](C)CN(c1ccc(C(=O)N(C)C)cn1)C2` [Example 690, (S)-5-(5-(dimethylcarbamoyl)pyridin-2-yl)-N-(3-fluoro-4-((R)-octahydropyrrolo[1,2-a]lpyrazine-2-carboxamido)benzyl)-1-isopropyl-7-methyl-4,5,6,7-tetrahydro-1H-pyrazolo[4,3-c]pyridine-3-carboxamide] has an EC50 of 1 nM.

In the case of `CC(C)n1nc(C(=O)NCc2ccc(NC(=O)N(C)C)cc2)c2c1CCN(c1ccc(C(=O)N3Cc4ccnn4C(C)C3)cn1)C2` (stereo not drawn) [Example 424, N-(4-(3,3-dimethylureido)benzyl)-1-isopropyl-5-(5-(7-methyl-4,5,6,7-tetrahydropyrazolo[1,5-a]pyrazine-5-carbonyl)pyridin-2-yl)-4,5,6,7-tetrahydro-1H-pyrazolo[4,3-c]pyridine-3-carboxamide], the EC50 is reported as 46 nM.
